The values below come from ChEMBL document CHEMBL3880391, “Tetrahydroquinoline derivatives as glycine antagonists” (2002).

For one data set, the system named is Mus musculus. Nature of the data set: Analgesic activity in mouse assessed as inhibition of formalin-induced pain by measuring time spent licking injected paw for first 5 minutes (early phase) and from 20 to 60 mins (late phase) administered orally 1 hr before formalin injection by formalin test. The format is functional.
Details: not given
On to `O=C([O-])C1CC(C2=CCN(c3ccccc3)C2=O)c2ccc(Cl)cc2N1.[Na+]` (single isomer, unassigned), for which the ED50 is 0.3 mg/kg.

With `O=C([O-])C1CC(C2=CCN(c3ccccc3)C2=O)c2ccc(Cl)cc2N1.[Na+]` (single isomer, unassigned; (-)), the ED50 was 0.03 mg/kg.

Staying with this data set, now noted: Mus musculus, po; read-out: ED50.
As to `O=C([O-])C1C/C(=C2\CCN(c3ccccc3)C2=O)c2ccc(Cl)cc2N1.[Na+]` (single isomer, unassigned; (-)), the ED50 was determined as 0.14 mg/kg.

Test system in the next data set: not listed separately
Nature of the data set: Toxicity in orally dosed mouse assessed as induction of untoward effects. It counts as organism-based. The following applies: in vivo, po.
With `O=C([O-])C1CC(C2=CCN(c3ccccc3)C2=O)c2c(Cl)cc(Cl)cc2N1.[Na+]` (racemic), the Activity result was “Non-Toxic”.

Take `O=C([O-])C1C/C(=C2/NC(=O)N(c3ccccc3)C2=O)c2ccc(Cl)cc2N1.[Na+]` (racemic): the Activity result is “Non-Toxic”.

As for `CC(=O)Nc1ccc(N2CC/C(=C3\CC(C(=O)O)Nc4cc(Cl)ccc43)C2=O)cc1` (racemic), the Activity entry was “Non-Toxic”.

`CS(=O)(=O)Nc1ccc(N2CC=C(C3CC(C(=O)[O-])Nc4cc(Cl)ccc43)C2=O)cc1.[Na+]` (racemic): the Activity result is recorded as “Non-Toxic”.

`CC(=O)Nc1ccc(N2CC=C(C3CC(C(=O)O)Nc4cc(Cl)ccc43)C2=O)cc1` (racemic): the Activity result is reported as “Non-Toxic”.

On to `O=C([O-])C1CC(C2=CCCN(c3ccccc3)C2=O)c2ccc(Cl)cc2N1.[Na+]` (racemic), for which the Activity result is on record as “Non-Toxic”.

Regarding `O=C([O-])C1C/C(=C2\CCN(c3cccnc3)C2=O)c2ccc(Cl)cc2N1.[Na+]` (racemic), the Activity result is recorded as “Non-Toxic”.

As to `O=C([O-])C1C/C(=C2\CCN(c3ccccc3)C2=O)c2ccc(Cl)cc2N1.[Na+]` (single isomer, unassigned; (-)), the Activity result is reported as “Non-Toxic”.

In the case of `O=C([O-])C1CC(C2=CCN(c3ccccc3)C2=O)c2ccc(Cl)cc2N1.[Na+]` (racemic), the Activity result is on record as “Non-Toxic”.

Regarding `O=C([O-])C1C/C(=C2/CCN(c3ccccc3)C2=O)c2c(Cl)cc(Cl)cc2N1.[Na+]` (centres undefined), the Activity result is “Non-Toxic”.

With `O=C([O-])C1CC(C2=CCN(c3cccnc3)C2=O)c2ccc(Cl)cc2N1.[Na+]` (racemic), the Activity entry is listed as “Non-Toxic”.
